Measurements: ChEMBL document CHEMBL3137667, “[Drug-induced liver injury; fourteenth updated edition of the bibliographic database of liver injuries and related drugs]” (Gastroenterol Clin Biol, 2004)

Key:
[1] = human
[2] = human; remark: listed apart in the source
[3] = Highest frequency of moderate liver toxicity observed during clinical trials, expressed as a percentage. [column '% BIOL' in source]; conditions: human
[4] = human; remark: listed apart in the source
[5] = human; remark: listed apart in the source
[6] = human; remark: listed apart in the source
[7] = Highest frequency of acute liver toxicity observed during clinical trials, expressed as a percentage. [column '% AIGUE' in source]; conditions: human
[8] = human; remark: listed apart in the source
[9] = human, serum
[10] = human; remark: listed apart in the source
[11] = Times to onset, minimal and maximal, observed in the indexed observations. [column 'DELAI' in source]; conditions: human
[12] = human; remark: listed apart in the source
[13] = human; remark: listed apart in the source
[14] = human, serum, 4383 h
[15] = human, serum; remark: listed apart in the source
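Throughout, for Hepatotoxicity (association with vascular disease): count of indexed literature references reporting vascular liver injury in humans, e.g. peliosis hepatitis, hepatic veno-occlusive disease or Budd-Chiari syndrome.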
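Throughout, for Hepatotoxicity (benign tumour): value is a count of indexed literature references citing a benign tumour confirmed by histopathology.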
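Throughout, for Hepatotoxicity (choleostasis): human cholestatic liver injury, shown by histopathology or by peak ALT or AST elevation over alkaline phosphatase ratio below 2, value counts indexed literature reports.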
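Throughout, for Hepatotoxicity (chronic liver disease): chronic liver injury confirmed by histopathology or persistently raised serum aminotransferase activity beyond 6 months, value given as the count of indexed literature references.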
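Throughout, for Hepatotoxicity (cirrhosis): value is a count of indexed literature references reporting cirrhosis confirmed by histopathology.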
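Throughout, for Hepatotoxicity (cytolytic): human cytolytic liver injury, shown by histopathology or by a ratio above 5 of peak ALT or AST elevation to alkaline phosphatase elevation, value counts indexed references.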
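Throughout, for Hepatotoxicity (granulomatous hepatitis): value is a count of indexed literature references reporting granulomatous liver disease confirmed by histopathology.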
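Throughout, for Hepatotoxicity (malignant tumour): malignant tumour confirmed by histopathology, value gives the count of indexed literature references reporting it.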
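Throughout, for Hepatotoxicity (severe hepatitis): human clinical data: severe hepatitis, meaning potentially life-threatening liver failure or clinically observed cases, the value counts how many indexed literature references report it.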
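Throughout, for Hepatotoxicity (steatosis): steatosis confirmed by histopathology, value is the count of indexed references.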

| Compound | Hepatotoxicity (benign tumour) [2] | Hepatotoxicity (cytolytic) [4] | Hepatotoxicity (granulomatous hepatitis) [5] | Hepatotoxicity (choleostasis) [6] | Hepatotoxicity (steatosis) [8] | Hepatotoxicity (moderate) [9] | Hepatotoxicity (cirrhosis) [10] | Hepatotoxicity (time to onset) [11] | Hepatotoxicity (malignant tumour) [12] | Hepatotoxicity (association with vascular disease) [13] | Hepatotoxicity (chronic liver disease) [14] | Hepatotoxicity (acute) [15] | Hepatotoxicity (severe hepatitis) [1] | Hepatotoxicity (moderate) [3] | Hepatotoxicity (acute) [7] | also measured |
| --- | --- | --- | --- | --- | --- | --- | --- | --- | --- | --- | --- | --- | --- | --- | --- | --- |
| COc1ccccc1OCCNCC(O)COc1cccc2[nH]c3ccccc3c12 (stereo not given) [CARVEDILOL] | 0 | 1 | 0 | 1 | 0 | 0 | 0 | 6 months | 0 | 0 | 0 | 1 | – | – | – | Hepatotoxicity (severe hepatitis) ([1]; Liver): 0; Hepatotoxicity (moderate) ([3]; Liver): 0%; Hepatotoxicity (acute) ([7]; Liver): 0% |
| N[C@@H](C(=O)N[C@@H]1C(=O)N2C(C(=O)O)=C(Cl)CS[C@H]12)c1ccccc1 [CEFACLOR ANHYDROUS] | 0 | 1 | 0 | 2 | 0 | 20 | 0 | 8 days | 0 | 0 | 0 | 2 | 0 | 10.7% | 2.2% | – |
| Cn1nnnc1SCC1=C(C(=O)O)N2C(=O)[C@@H](NC(=O)[C@H](O)c3ccccc3)[C@H]2SC1 [CEFAMANDOLE] | 0 | 0 | 0 | 1 | 0 | 13 | 0 | 4 days | 0 | 0 | 0 | 2 | 0 | 75% | 2.4% | – |
| C=CC1=C(C(=O)O)N2C(=O)[C@@H](NC(=O)/C(=N\OCC(=O)O)c3csc(N)n3)[C@H]2SC1 [CEFIXIME] | 0 | 0 | 0 | 1 | 0 | 37 | 0 | 2 days | 0 | 0 | 0 | 1 | 0 | 33.3% | 0% | – |
| CO[C@@]1(NC(=O)CSC[C@@H](N)C(=O)O)C(=O)N2C(C(=O)O)=C(CSc3nnnn3C)CS[C@@H]21 [CEFMINOX] | 0 | – | – | – | 0 | 12 | 0 | 9 days | 0 | 0 | 0 | 2 | – | – | – | Hepatotoxicity (severe hepatitis) ([1]; Liver): 0; Hepatotoxicity (moderate) ([3]; Liver): 16.7%; Hepatotoxicity (cytolytic) ([4]; Liver): 0; Hepatotoxicity (granulomatous hepatitis) ([5]; Liver): 0; Hepatotoxicity (choleostasis) ([6]; Liver): 0; Hepatotoxicity (acute) ([7]; Liver): 0.1% |
| NCc1ccccc1CC(=O)N[C@@H]1C(=O)N2C(C(=O)O)=C(CSc3nnnn3CC(=O)O)CS[C@H]12 [CEFORANIDE] | 0 | 2 | 0 | 1 | 0 | 6 | 0 | 5 days - 3 weeks | 0 | 0 | 0 | 2 | 0 | 42.9% | 3.4% | – |
| CO/N=C(\C(=O)N[C@@H]1C(=O)N2C(C(=O)O)=C(COC(C)=O)CS[C@H]12)c1csc(N)n1 [CEFOTAXIME] | 0 | 1 | 0 | 2 | 0 | 33 | 0 | 3 days - 2 weeks | 0 | 0 | 0 | 4 | 0 | 33.3% | 3.3% | – |
